System: pulmonary tuberculosis
Assay: Clinical study on patients with pulmonary tuberculosis
Type: in vivo, human
Conditions: for B-lymphocytes / T-helpers / T-lymphocytes / T-suppressors / Th/Ts: pulmonary tuberculosis patients
Text: The preparation of the present invention was also studied clinically on tuberculous patients. The age of the patients was under 30 years (6 persons) and under 35 years (2 persons).
The clincal forms of pulmonary tuberculosis in the patients tested were as follows:
infiltrative tuberculosis without cavities of decay and bacterioexcretion—2 persons;
infiltrative tuberculosis with decay and bacterioexcretion—4 persons;
disseminated pulmonary tuberculosis—2 people.
The length of preparation intake was 1 to 2 months. The dose was equal to 0.6 g a day.
The control group consisting of 5 persons with infiltrative pulmonary tuberculosis received conventional treatment including isoniazide. The tolerance for the preparation claimed was good. […] There was no change in functional indices of parenchymatous organs (liver, kidneys, pancreas). In 3 persons hospitalized with symptoms of intoxication the improvement of general physical and mental state was noted including normatization of body temperature, abatement of cough, decrease in amount of sputum excretion, improvement of appetite.

[1] = after three months, 0.6 g a day
[2] = tuberculous patients, 0.6 g a day, 1 to 2 months

For `Cc1[nH]c(=O)[nH]c(=O)c1S(=O)(=O)NNC(=O)c1ccncc1.O` [Isophonum, N-(6-methyl-2,4-dioxo-1,2,3,4-tetrahydro-5-pyrimidinsulfon)-N′-isonicotinoylhydrazide hydrate], the B-lymphocytes (after one month, 0.6 g a day) was 12.0 ± 0.8, the T-helpers (after one month, 0.6 g a day) was 37.4 ± 0.3 and the T-lymphocytes (after one month, 0.6 g a day) was 48.5 ± 1.0. The T-suppressors (after one month, 0.6 g a day) was 20.0 ± 0.6, the Th/Ts (after one month, 0.6 g a day) was 1.85 ± 0.2 and the B-lymphocytes [1] was 11.0 ± 0.6. The T-helpers [1] was 55.5 ± 2.0, the T-lymphocytes [1] was 54.8 ± 0.7 and the Th/Ts [1] was 2.75 ± 0.04. For the same molecule, the B-lymphocytes (before treatment) was 9.0 ± 0.3, the T-helpers (before treatment) was 28.6 ± 0.2 and the T-lymphocytes (before treatment) was 42.2 ± 0.1. For the same molecule, the T-suppressors (before treatment) was 28.0 ± 1.2, the Th/Ts (before treatment) was 1.0 ± 0.02 and the signs of toxication [2] was “No one of the patients exhibeted clinical, hematological signs of toxicaction”. The “tolerance for the preparation” value [2] was “good”.
